Literature values in patent US20030082231A1, “Coating for orally administered compositions” (priority 2001, published 2003).

Test system: sister chromatid exchanges (SCE) damage induced by benzo(a)pyrene

For chlorophyllin, the “genotoxic inhibition (frequency of sister chromatid exchanges)” value (SCE damage induced by benzo(a)pyrene, in vivo) is listed as “about 80%” and the “cell proliferation kinetics (CPK)” value (chlorophyllin plus benzo(a)pyrene) is listed as “inhibition of the cell proliferation kinetics”.
